The test system of the experiment is Nude mice, LX-1 lung xenograft intrarenal, tumor weight T/C. Nature of the experiment: NCI In Vivo Anticancer Drug Screen. Data for tumor model Human Lung LX-1 Xenograft (intrarenal inoculation) in NU/NU BALB/C (nude) mice. The following applies: endpoint: mean tumor weight change, higher = larger tumour. The protocol: The antitumor activity of compounds was measured in mice bearing transplantable tumors. Survival or tumor size were measured and the results are expressed as the measurement made in the treated group (T) divided by the measurement made in the vehicle treated control group (C). The tumor model used in this assay is Human Lung LX-1 Xenograft (intrarenal inoculation) in NU/NU BALB/C (nude) mice
In general terms: Xenograft models place foreign cells or tissue in a host animal.

[1] abbreviates: dose: 300.0 mg/kg/injection, schedule: Q04DX003 (sc), vehicle: saline.
The mark [2] stands for this setting: dose: 300.0 mg/kg/injection, schedule: Q04DX003 (sc), vehicle: saline with Tween-80.
The mark [3] stands for this setting: dose: 600.0 mg/kg/injection, schedule: Q04DX003 (sc), vehicle: saline with Tween-80.
The mark [4] stands for this setting: dose: 1200.0 mg/kg/injection, schedule: Q04DX003 (sc), vehicle: saline with Tween-80.
Setting [5] is: dose: 2400.0 mg/kg/injection, schedule: Q04DX003 (sc), vehicle: saline with Tween-80.
Setting [6] is: dose: 50.0 mg/kg/injection, schedule: Q04DX003 (sc), vehicle: water.
The mark [7] stands for this setting: dose: 100.0 mg/kg/injection, schedule: Q04DX003 (sc), vehicle: water.
Where [8] appears, read: dose: 150.0 mg/kg/injection, schedule: Q04DX003 (sc), vehicle: Klucel (hydroxypropylcellulose) (HPC).
Where [9] appears, read: dose: 300.0 mg/kg/injection, schedule: Q04DX003 (sc), vehicle: Klucel (hydroxypropylcellulose) (HPC).

Several values for one entry are separate records, joined by “and”; a condition that tells them apart may be missing. Equal values may be shown once. Results filed as inconclusive are left out.

With `NC(CCC(=O)NC(CS)C(=O)NCC(=O)O)C(=O)O` (configuration not stated), the T/C under setting [1] was 97 % of control; the T/C (dose: 600.0 mg/kg/injection, schedule: Q04DX003 (sc), vehicle: saline) was 69 % of control; the T/C (dose: 1200.0 mg/kg/injection, schedule: Q04DX003 (sc), vehicle: saline) was 74 % of control; the T/C (dose: 2400.0 mg/kg/injection, schedule: Q04DX003 (sc), vehicle: saline) was 121 % of control.

Regarding `O=C(CCCCCCC(=O)ON1C(=O)CCC1=O)ON1C(=O)CCC1=O`, the T/C was 104 % of control under setting [2], 95 % of control under setting [3], 89 % of control under setting [4] and 72 % of control under setting [5].

Consider `COC1N(C2CC(O)C(CO)O2)C(=O)NC(=O)C1(F)Br` (configuration not stated), for which the T/C (dose: 12.5 mg/kg/injection, schedule: Q01DX010 (sc), vehicle: saline) was 54 % of control; the T/C (dose: 50.0 mg/kg/injection, schedule: Q01DX010 (sc), vehicle: saline) was 12 % of control and 24 % of control; the T/C (dose: 100.0 mg/kg/injection, schedule: Q01DX010 (sc), vehicle: saline) is 12 % of control and 13 % of control.

Consider `CN(C)P(=O)(Oc1ccccc1)N(C)C`, for which the T/C runs as follows: (dose: 150.0 mg/kg/injection, schedule: Q04DX003 (sc), vehicle: saline with Tween-80) 99 % of control; under setting [2], 111 % of control; under setting [3], 72 % of control; under setting [4], 83 % of control.

On to `Nc1nc(=S)c2ncn(C3CC(O)C(CO)O3)c2[nH]1` (configuration not stated), for which the T/C reads like this: (dose: 50.0 mg/kg/injection, schedule: Q01DX010 (sc), vehicle: Klucel (hydroxypropylcellulose) (HPC)) 152 % of control; (dose: 100.0 mg/kg/injection, schedule: Q01DX010 (sc), vehicle: Klucel (hydroxypropylcellulose) (HPC)) 118 % of control; (dose: 200.0 mg/kg/injection, schedule: Q01DX010 (sc), vehicle: Klucel (hydroxypropylcellulose) (HPC)) 73 % of control; (dose: 400.0 mg/kg/injection, schedule: Q01DX010 (sc), vehicle: Klucel (hydroxypropylcellulose) (HPC)) 107 % of control.

For the compound `COc1cccc2c1C(=O)c1c(O)c3c(c(O)c1C2=O)CC(O)(C(=O)CO)CC3OC1CC(N)C(O)C(C)O1` (configuration not stated), the T/C reads like this: under setting [6], 86 % of control; under setting [7], 103 % of control; (dose: 200.0 mg/kg/injection, schedule: Q04DX003 (sc), vehicle: water) 90 % of control; (dose: 400.0 mg/kg/injection, schedule: Q04DX003 (sc), vehicle: water) 103 % of control.

For `CCC1CCCCN1C(=S)N/N=C(\C)c1ccccn1` (configuration not stated), the T/C by setting is: (dose: 18.75 mg/kg/injection, schedule: Q04DX003 (sc), vehicle: saline with Tween-80) 100 % of control; (dose: 37.5 mg/kg/injection, schedule: Q04DX003 (sc), vehicle: saline with Tween-80) 83 % of control; (dose: 75.0 mg/kg/injection, schedule: Q04DX003 (sc), vehicle: saline with Tween-80) 81 % of control.

Turning to `CN=NN(C)C(=O)NC`, the T/C is 71 % of control and 82 % of control (dose: 6.25 mg/kg/injection, schedule: Q04DX003 (ip), vehicle: saline); 28 % of control and 45 % of control (dose: 12.5 mg/kg/injection, schedule: Q04DX003 (ip), vehicle: saline); 6 % of control (dose: 25.0 mg/kg/injection, schedule: Q04DX003 (ip), vehicle: saline); -34 % of control and -18 % of control (dose: 50.0 mg/kg/injection, schedule: Q04DX003 (ip), vehicle: saline); 5 % of control (dose: 108.0 mg/kg/injection, schedule: Q04DX003 (ip), vehicle: saline); 4 % of control (dose: 180.0 mg/kg/injection, schedule: Q04DX003 (ip), vehicle: saline).

Consider `CC(/C=C/c1ccccc1)=Nc1ccccc1`, for which the T/C under setting [2] is 63 % of control, the T/C under setting [3] is 108 % of control, the T/C under setting [4] is 83 % of control and the T/C under setting [5] was 100 % of control.

Consider `NC(=O)CCC(N)C(=O)O` (configuration not stated), for which the T/C by setting is: (dose: 75.0 mg/kg/injection, schedule: Q04DX003 (ip), vehicle: suspension in saline) 88 % of control; (dose: 150.0 mg/kg/injection, schedule: Q04DX003 (ip), vehicle: suspension in saline) 77 % of control; (dose: 300.0 mg/kg/injection, schedule: Q04DX003 (ip), vehicle: suspension in saline) 93 % of control; (dose: 600.0 mg/kg/injection, schedule: Q04DX003 (ip), vehicle: suspension in saline) 100 % of control; (dose: 1200.0 mg/kg/injection, schedule: Q04DX003 (ip), vehicle: suspension in saline) 87 % of control.

On to `CC(CN1CC(=O)NC(=O)C1)N1CC(=O)NC(=O)C1` (configuration not stated), for which the T/C by setting is: under setting [8], 88 % of control; under setting [9], 94 % of control; (dose: 600.0 mg/kg/injection, schedule: Q04DX003 (sc), vehicle: Klucel (hydroxypropylcellulose) (HPC)) 45 % of control.

Regarding `C[n+]1c(-c2cccc3ccccc23)c2cc(N)ccc2c2ccccc21`, the T/C is 164 % of control (dose: 1.5 mg/kg/injection, schedule: Q04DX003 (sc), vehicle: saline); 113 % of control (dose: 6.0 mg/kg/injection, schedule: Q04DX003 (sc), vehicle: saline); 112 % of control (dose: 24.0 mg/kg/injection, schedule: Q04DX003 (sc), vehicle: saline); 78 % of control (dose: 48.0 mg/kg/injection, schedule: Q04DX003 (sc), vehicle: saline).

With `CN(N=O)C(=O)N[C@@H](C=O)[C@@H](O)[C@H](O)[C@H](O)CO`, the T/C (dose: 150.0 mg/kg/injection, schedule: Q04DX003 (sc), vehicle: saline) is 40 % of control and the T/C under setting [1] was 4 % of control.

As for `O=NN(CCCl)C(=O)NCCO`, the T/C reads like this: (dose: 3.13 mg/kg/injection, schedule: Q04DX003 (sc), vehicle: water) 113 % of control; (dose: 6.25 mg/kg/injection, schedule: Q04DX003 (sc), vehicle: water) 26 % of control; (dose: 12.5 mg/kg/injection, schedule: Q04DX003 (sc), vehicle: water) -25 % of control.

On to `C1CC[N-]CC1.[Cl][Pt+2][Cl].[NH-]C1CC1`, for which the T/C runs as follows: (dose: 25.0 mg/kg/injection, schedule: Q04DX003 (sc), vehicle: water) 106 % of control; under setting [6], 71 % of control; under setting [7], 51 % of control.

As to `CC(=O)OCC1(C)NC(=O)c2ccccc2O1` (configuration not stated), the T/C is 86 % of control under setting [2] and 91 % of control under setting [4].

As for `O=CNCO`, the T/C is 72 % of control (dose: 250.0 mg/kg/injection, schedule: Q01DX010 (sc), vehicle: water); 87 % of control (dose: 500.0 mg/kg/injection, schedule: Q01DX010 (sc), vehicle: water); 100 % of control (dose: 1000.0 mg/kg/injection, schedule: Q01DX010 (sc), vehicle: water); 80 % of control (dose: 2000.0 mg/kg/injection, schedule: Q01DX010 (sc), vehicle: water).

With `CC1CCC(NC(=O)N(CCCl)N=O)CC1` (configuration not stated), the T/C by setting is: (dose: 3.13 mg/kg/injection, schedule: Q01DX010 (sc), vehicle: Klucel (hydroxypropylcellulose) (HPC)) 67 % of control; (dose: 6.25 mg/kg/injection, schedule: Q01DX010 (sc), vehicle: Klucel (hydroxypropylcellulose) (HPC)) 3 % of control.

With `Oc1c(Cl)cc(Cl)cc1C=NCCSc1ccc(Cl)cc1`, the T/C was 71 % of control (dose: 150.0 mg/kg/injection, schedule: Q04DX003 (ip), vehicle: Klucel (hydroxypropylcellulose) (HPC)) and 70 % of control (dose: 1200.0 mg/kg/injection, schedule: Q04DX003 (ip), vehicle: Klucel (hydroxypropylcellulose) (HPC)).

In the case of `C=C(C)C(=O)O[C@H]1CC2=C[C@@H](C[C@@]3(C)O[C@@H]3[C@H]3OC(=O)C(=C)[C@@H]31)OC2=O`, the T/C (dose: 75.0 mg/kg/injection, schedule: Q04DX003 (sc), vehicle: Klucel (hydroxypropylcellulose) (HPC)) was 64 % of control; the T/C under setting [8] was 91 % of control; the T/C under setting [9] is 58 % of control.

With `CC(=Nc1ccccc1)C1=C(O)C(Cc2ccccc2)NC1=O` (configuration not stated), the T/C by setting is: under setting [2], 52 % of control; under setting [3], 32 % of control; under setting [4], 40 % of control; under setting [5], 30 % of control.

`CC(=O)OCN(C)C=O`: the T/C by setting is: (dose: 300.0 mg/kg/injection, schedule: Q01DX010 (sc), vehicle: water) 65 % of control; (dose: 600.0 mg/kg/injection, schedule: Q01DX010 (sc), vehicle: water) 52 % of control; (dose: 1200.0 mg/kg/injection, schedule: Q01DX010 (sc), vehicle: water) 40 % of control; (dose: 2400.0 mg/kg/injection, schedule: Q01DX010 (sc), vehicle: water) 45 % of control.
